Some results are limits rather than exact numbers.

For this test, the target named is T1, E-selectin (Homo sapiens, UniProt P16581).
T1 sequence (P16581 whole entry): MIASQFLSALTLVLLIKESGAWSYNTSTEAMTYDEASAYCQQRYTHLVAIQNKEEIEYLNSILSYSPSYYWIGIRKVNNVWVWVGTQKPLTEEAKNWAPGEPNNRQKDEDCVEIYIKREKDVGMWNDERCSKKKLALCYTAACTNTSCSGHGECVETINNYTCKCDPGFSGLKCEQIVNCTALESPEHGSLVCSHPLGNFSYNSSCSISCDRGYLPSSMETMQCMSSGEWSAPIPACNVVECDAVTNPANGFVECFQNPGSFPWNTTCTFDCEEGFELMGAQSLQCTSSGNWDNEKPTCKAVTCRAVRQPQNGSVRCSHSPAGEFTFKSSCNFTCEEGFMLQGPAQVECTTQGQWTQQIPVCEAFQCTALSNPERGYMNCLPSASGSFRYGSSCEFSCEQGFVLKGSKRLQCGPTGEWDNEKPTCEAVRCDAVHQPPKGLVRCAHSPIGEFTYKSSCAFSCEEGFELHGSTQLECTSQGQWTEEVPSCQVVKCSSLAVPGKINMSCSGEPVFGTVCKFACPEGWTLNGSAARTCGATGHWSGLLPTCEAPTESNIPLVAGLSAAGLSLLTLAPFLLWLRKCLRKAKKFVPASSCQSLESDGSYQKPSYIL
The experiment in a line: Compound was tested for its ability to inhibit the binding to recombinant human Selectin E immobilized on SPA beads of radiolabeled HL60 cell membrane containing sLex. It counts as cell membranes, HL-60.
Turning to `C[C@@H]1O[C@@H](OC2CCCCC2O[C@@H]2O[C@@H](CO)[C@H](O)[C@H](OCC(=O)O)[C@@H]2O)[C@@H](O)[C@@H](O)[C@@H]1O` (stereo partly drawn), the IC50 (as a rule, the midpoint of a concentration-inhibition curve) was 500 µM.
Turning to `CC(O[C@@H]1O[C@@H](C)[C@@H](O)[C@H](O)[C@@H]1O)C(C)O[C@@H]1O[C@@H](CO)[C@H](O)[C@H](OCC(=O)O)[C@@H]1O` (stereo partly drawn), the IC50 was determined as 2100 µM.
Regarding `C[C@@H]1O[C@@H](O[C@@H]2CCCC[C@H]2O[C@@H]2O[C@@H](CO)[C@H](O)[C@H](OCC(=O)O)[C@@H]2O)[C@@H](O)[C@@H](O)[C@@H]1O`, the IC50 is above 10000 µM.

Source of the values: ChEMBL document CHEMBL1129722, “Synthesis and biological activity of conformationally constrained sialyl Lewis X analogues with reduced carbohydrate character” (Bioorg Med Chem Lett, 1996).
